According to ChEMBL document CHEMBL1201862, “PubChem BioAssay data set” (2004):
The source made the active and inactive calls.

Assays:
Assay type in all cases: functional
[1] = molecular target: T1, High affinity choline transporter 1 (Homo sapiens, UniProt Q9GZV3); assay: human choline transporter radiolabel uptake blockers – cell-based, 3H-choline uptake, CHT LV-AA trafficking mutant, CRC, dose response (AID 602208)
T1 sequence (Q9GZV3 whole entry): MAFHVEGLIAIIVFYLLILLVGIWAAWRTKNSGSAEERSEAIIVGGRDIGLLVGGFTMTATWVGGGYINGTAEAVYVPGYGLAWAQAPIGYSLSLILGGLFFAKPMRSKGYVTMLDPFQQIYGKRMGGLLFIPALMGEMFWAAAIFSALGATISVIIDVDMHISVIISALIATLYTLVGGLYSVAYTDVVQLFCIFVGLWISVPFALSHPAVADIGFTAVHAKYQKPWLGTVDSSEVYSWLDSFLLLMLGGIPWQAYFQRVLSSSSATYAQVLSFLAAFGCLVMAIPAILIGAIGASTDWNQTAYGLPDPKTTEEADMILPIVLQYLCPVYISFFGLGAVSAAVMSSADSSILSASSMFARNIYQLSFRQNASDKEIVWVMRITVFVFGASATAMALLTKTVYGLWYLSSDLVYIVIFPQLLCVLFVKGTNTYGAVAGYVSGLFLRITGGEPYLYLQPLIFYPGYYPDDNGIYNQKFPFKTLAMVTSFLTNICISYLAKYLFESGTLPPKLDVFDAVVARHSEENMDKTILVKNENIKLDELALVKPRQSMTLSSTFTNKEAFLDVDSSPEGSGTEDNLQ

[2] = molecular target: T1, High affinity choline transporter 1; assay: human choline transporter blockers, potency – cell-based, 10-point CRC, membrane potential dye, dose response (AID 588401);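 also: membrane potential dye fluorescence of choline-evoked depolarization via CHT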
[3] = molecular target: T1, High affinity choline transporter 1; assay: human choline transporter blockers, potency – cell-based, 5-point CRC, membrane potential dye, dose response (AID 504840)

Measured: IC50

COc1ccc(C(=O)NCc2nc(C)c(C)s2)cc1OC1CCN(C(C)C)CC1
active: [1] 303 nM | [2] 761 nM | [3] 1.32 µM
